# In US9808470B2, “Estrogenic components for use in the treatment of neurological disorders” (UNIVERSITE DE LIEGE, priority 2012, dated 2017):
# How the values were obtained:
# doublecortin (DCX) = experiment: Ex.4 therapeutic HIE rat model: doublecortin staining; format: in vivo
# Experimental: The sections were heated in 10 mmol/L citrate buffer (pH 6.0) at 100° C. for 10 minutes. Endogenous peroxidase activity was blocked with 3% hydrogen peroxide for 10 minutes and after a second blocking with 5% normal goat serum, the sections were incubated with anti-doublecortin (DCX) antibody, diluted 1:1000 (rabbit polyclonal antibody; Abcam, Cambridge, UK) and anti-vascular endothelial growth factor (VEGF) antibody, diluted 1:100 (mouse monoclonal antibody; Abcam, Cambridge, UK) overnight at 4° C. After rinsing, Alexa Fluor® goat anti-rabbit, diluted 1:1000 and Alexa Fluor® goat anti-mouse, diluted 1:1000 (Invitrogen Inc., Ghent, Belgium) were added and sections were incubated 1 h at room temperature. Mounting medium containing 4′,6-diamidino-2-phenylindole (DAPI) for fluorescent studies was used (Vector Laboratories). Samples were analyzed with the aid of a microscope (Olympus Vanox AHBT3, Olympus), and the ImageJ software (NIH). The percentage of positively stained cells was quantified as a sum of positively stained either DCX or VEGF cells divided by the total number of DAPI positive cells expressed in percentage.
# To study the therapeutic effect of estetrol, newborn rat pups were assigned to one of the following 6 groups at postnatal day 7: sham group (n=29), vehicle group (n=20), 1 mg/kg E4 group (n=16), 5 mg/kg E4 group (n=19), 10 mg/kg day E4 (n=17) and 50 mg/kg day E4 group (n=15). At postnatal day 7 animals were anesthetized with isoflurane (induction, 3.0%; maintenance, 1.5%), and the rat pups from vehicle and E4 groups passed through surgery encompassing left common carotid artery double ligation and cut. After surgery, the pups were returned to their dams and allowed to recover for 1 hour. The pups were then placed in a humidified hypoxic in vivo cabinet (CoyLab). Hypoxia was produced by the inhalation of 11%-8% of oxygen balanced by nitrogen at decreased concentration of oxygen for 20 minutes, followed by inhalation of 8% oxygen and 92% nitrogen at constant concentration for 35 minutes. All the manipulations were performed at 37° C.
# Upon retrieval from the hypoxia chamber the rat pups were injected intraperitoneally either by vehicle (vehicle group) or by E4 (1 mg/kg, 5 mg/kg, 10 mg/kg or 50 mg/kg) in accordance to the group assignment. The animals from the sham group went through similar procedures but proceeded neither left common carotid artery ligation and cut followed by hypoxia nor vehicle or estetrol administration. Rat pups recovered with their dams until being sacrificed at postnatal day 14.
# [1] = Ex.8 therapeutic HIE rat model (E4 alone or combinations): rectal temperature; format: in vivo; details: vs sham
# Experimental: All the compounds used for in vivo studies were dissolved in absolute Ethanol (ETOH) and further diluted in saline solution at a final concentration of ETOH 10%. An equal volume (5 μ1/g) of the solution was injected intraperitoneally (ip) into the pups from study groups. Rat pups from the vehicle group were ip injected a saline solution containing 10% ETOH. Rat pups from the Sham group were not injected at all.
# To study the therapeutic effect of estetrol, newborn rat pups were assigned to one of the following 14 groups at postnatal day 7 (FIG. 23(B)): Sham group (n=12), Vehicle (n=15), 5 mg/kg/day E4 (n=11), 10 mg/kg/day E4 (n=11), 5 mg/kg/day E4+1.6 mg/kg/day PROG (n=11), 10 mg/kg/day E4+1.6 mg/kg/day PROG (n=11), 5 mg/kg/day E4+16 mg/kg/day PROG (n=11), 10 mg/kg/day E4+16 mg/kg/day PROG (n=13), 5 mg/kg/day E4+136 ng//kg/day E2 (n=11), 10 mg/kg/day E4+136 ng/kg/day E2 (n=11), 5 mg/kg/day E4+1.6 mg/kg/day PROG+136 ng/kg/day E2 (n=12), 10 mg/kg/day E4+1.6 mg/kg/day PROG+136 ng/kg/day E2 (n=11), 5 mg/kg/day E4+16 mg/kg/day PROG+136 ng/kg/day E2 (n=11), 10 mg/kg/day E4+16 mg/kg/day PROG+136 ng/kg/day (n=12) groups. […]
# The rectal temperature of the rat pups was measured with a multipurpose thermometer (BAT-10R, Physitemp Instruments Inc., Clifton, N.J., US) along with a rectal probe (RET-4, BioMedical Instruments, Zollnitz, Germany) at 0, 2, and 4 hours after exposure to hypoxic insult. […]
smiles,measurement,setting,value
"C[C@]12CC[C@@H]3c4ccc(O)cc4CC[C@H]3[C@@H]1[C@@H](O)[C@@H](O)[C@@H]2O [E4, 1,3,5(10)-estratrien-3,15α,16α,17β-tetrol]",percentage of DCX positively stained cells,"doublecortin (DCX); 5 mg/kg E4 single ip dose after HI, cortex",45.2±3.339%
same,percentage of DCX positively stained cells,"doublecortin (DCX); 10 mg/kg E4 single ip dose after HI, CA1",37.1±3.84
same,percentage of DCX positively stained cells,"doublecortin (DCX); 10 mg/kg E4 single ip dose after HI, CA2/CA3",42.5±5.986%
same,percentage of DCX positively stained cells,"doublecortin (DCX); 10 mg/kg E4 single ip dose after HI, cortex",49.4±4.949%
same,percentage of DCX positively stained cells,"doublecortin (DCX); 50 mg/kg E4 single ip dose after HI, CA1",37.3±4.784%
same,percentage of DCX positively stained cells,"doublecortin (DCX); 50 mg/kg E4 single ip dose after HI, cortex",49.6±3.11%
same,DCX staining,"doublecortin (DCX); E4 1, 5, 10, 50 mg/kg single ip dose after HI, DG, among study groups",neither DCX nor VEGF staining was significantly different
same,rectal temperature,"[1]; 5 mg/kg/day E4, 4 h after HI, E4+E2 and E4+16 mg/kg/day PROG+E2",significantly higher rectal temperature
same,rectal temperature,"[1]; 10 mg/kg/day E4, 4 h after HI, E4+E2 and E4+16 mg/kg/day PROG",significant increase of the rectal temperature
